In PubChem BioAssay AID248 (DTP/NCI, 2004):
Several values for one entry are separate records, joined by “and”; a condition that tells them apart may be missing. Equal entries are not always repeated. Toxic doses and inconclusive results are not listed.

Test system: L1210 leukemia ip in BDF1 mice, survival T/C
Experiment: NCI In Vivo Anticancer Drug Screen. Data for tumor model L1210 Leukemia (intraperitoneal) in B6D2F1 (BDF1) mice
Conditions: endpoint: mean survival time, higher = longer survival
In short: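 Tumor cells were implanted, animals were treated, and survival was followed. The result divides the treated measurement by the vehicle-control measurement.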

[1] = dose: 25.0 mg/kg/injection, schedule: Q01DX009 (ip), vehicle: saline
[2] = dose: 25.0 mg/kg/injection, schedule: Q04DX003 (ip), vehicle: saline
[3] = dose: 50.0 mg/kg/injection, schedule: Q01DX009 (ip), vehicle: saline
[4] = dose: 50.0 mg/kg/injection, schedule: Q04DX003 (ip), vehicle: saline
[5] = dose: 100.0 mg/kg/injection, schedule: Q01DX001 (ip), vehicle: saline
[6] = dose: 100.0 mg/kg/injection, schedule: Q04DX003 (ip), vehicle: saline
[7] = dose: 100.0 mg/kg/injection, schedule: Q01DX009 (ip), vehicle: saline with Tween-80
[8] = dose: 200.0 mg/kg/injection, schedule: Q01DX009 (ip), vehicle: saline with Tween-80
[9] = dose: 400.0 mg/kg/injection, schedule: Q01DX001 (ip), vehicle: carboxymethylcellulose (CMC)
[10] = dose: 100.0 mg/kg/injection, schedule: Q01DX001 (ip), vehicle: Klucel (hydroxypropylcellulose) (HPC)
[11] = dose: 200.0 mg/kg/injection, schedule: Q01DX001 (ip), vehicle: Klucel (hydroxypropylcellulose) (HPC)
[12] = dose: 200.0 mg/kg/injection, schedule: Q01DX001 (ip), vehicle: saline
[13] = dose: 400.0 mg/kg/injection, schedule: Q01DX001 (ip), vehicle: saline
[14] = dose: 100.0 mg/kg/injection, schedule: Q04DX003 (ip), vehicle: Klucel (hydroxypropylcellulose) (HPC)
[15] = dose: 200.0 mg/kg/injection, schedule: Q04DX003 (ip), vehicle: Klucel (hydroxypropylcellulose) (HPC)
[16] = dose: 400.0 mg/kg/injection, schedule: Q04DX003 (ip), vehicle: Klucel (hydroxypropylcellulose) (HPC)
[17] = dose: 100.0 mg/kg/injection, schedule: Q01DX009 (ip), vehicle: Klucel (hydroxypropylcellulose) (HPC)
[18] = dose: 200.0 mg/kg/injection, schedule: Q01DX009 (ip), vehicle: Klucel (hydroxypropylcellulose) (HPC)
[19] = dose: 400.0 mg/kg/injection, schedule: Q01DX009 (ip), vehicle: Klucel (hydroxypropylcellulose) (HPC)
[20] = dose: 100.0 mg/kg/injection, schedule: Q01DX001 (ip), vehicle: carboxymethylcellulose (CMC)
[21] = dose: 200.0 mg/kg/injection, schedule: Q01DX001 (ip), vehicle: carboxymethylcellulose (CMC)

Nc1nc(Nc2ccc(C3=NCCN3)cc2)nc(Nc2ccc(C3=NCCN3)cc2)n1
T/C (dose: 1.2 mg/kg/injection, schedule: Q01DX Z (ip), vehicle: methylcellulose (MC)): 112 % of control
T/C (dose: 1.9 mg/kg/injection, schedule: Q01DX Z (ip), vehicle: methylcellulose (MC)): 123 % of control
T/C (dose: 3.75 mg/kg/injection, schedule: Q01DX Z (ip), vehicle: methylcellulose (MC)): 117 % of control
T/C (dose: 15.0 mg/kg/injection, schedule: Q01DX Z (ip), vehicle: methylcellulose (MC)): 120 % of control
T/C (dose: 16.5 mg/kg/injection, schedule: Q01DX009 (ip), vehicle: saline): 108 % of control
T/C [1]: 120 % of control and 122 % of control
T/C [2]: 112 % of control
T/C (dose: 37.5 mg/kg/injection, schedule: Q01DX009 (ip), vehicle: saline): 114 % of control and 115 % of control
T/C [3]: 123 % of control
T/C [4]: 109 % of control
T/C (dose: 60.0 mg/kg/injection, schedule: Q01DX Z (oral), vehicle: carboxymethylcellulose (CMC)): 100 % of control
T/C [5]: 117 % of control
T/C [6]: 91 % of control
T/C (dose: 120.0 mg/kg/injection, schedule: Q01DX Z (oral), vehicle: carboxymethylcellulose (CMC)): 95 % of control

CC1(C)SC(C(NC(=O)COc2ccccc2)C(=O)O)NC1C(=O)O (centres undefined)
T/C (dose: 50.0 mg/kg/injection, schedule: Q01DX009 (ip), vehicle: saline with Tween-80): 101 % of control
T/C [7]: 95 % of control
T/C [8]: 88 % of control

COC(=O)C(CSCSC)NC(=O)/C=C/c1ccc(C)cc1 (centres undefined)
T/C [7]: 102 % of control
T/C (dose: 100.0 mg/kg/injection, schedule: Q04DX003 (ip), vehicle: saline with Tween-80): 93 % of control
T/C [8]: 101 % of control
T/C (dose: 400.0 mg/kg/injection, schedule: Q01DX009 (ip), vehicle: saline with Tween-80): 91 % of control
T/C (dose: 400.0 mg/kg/injection, schedule: Q04DX003 (ip), vehicle: saline with Tween-80): 91 % of control

Cc1cc(C)c(C(=O)c2ccccc2)c(=O)o1
T/C (dose: 10.0 mg/kg/injection, schedule: Q01DX001 (ip), vehicle: carboxymethylcellulose (CMC)): 100 % of control
T/C (dose: 20.0 mg/kg/injection, schedule: Q01DX001 (ip), vehicle: carboxymethylcellulose (CMC)): 100 % of control
T/C (dose: 40.0 mg/kg/injection, schedule: Q01DX001 (ip), vehicle: carboxymethylcellulose (CMC)): 97 % of control
T/C [9]: 103 % of control

COC1OC2COC(c3ccccc3)OC2C(O)C1NC(C)=O (centres undefined)
T/C [10]: 95 % of control
T/C (dose: 100.0 mg/kg/injection, schedule: Q01DX001 (ip), vehicle: saline with Tween-80): 101 % of control
T/C [11]: 104 % of control
T/C (dose: 200.0 mg/kg/injection, schedule: Q01DX001 (ip), vehicle: saline with Tween-80): 97 % of control
T/C (dose: 400.0 mg/kg/injection, schedule: Q01DX001 (ip), vehicle: saline with Tween-80): 98 % of control

CC(CN)OCc1ccccc1 (centres undefined)
T/C (dose: 12.5 mg/kg/injection, schedule: Q01DX009 (ip), vehicle: saline): 97 % of control
T/C [1]: 99 % of control
T/C [3]: 104 % of control

CCCC[CH2][Sn](=[O])[CH2]CCCC
T/C (dose: 12.5 mg/kg/injection, schedule: Q04DX003 (ip), vehicle: saline): 101 % of control
T/C [2]: 101 % of control
T/C [4]: 108 % of control
T/C [5]: 109 % of control
T/C [12]: 104 % of control
T/C [13]: 98 % of control

CC[P+](C)(CC)c1ccccc1
T/C (dose: 15.0 mg/kg/injection, schedule: Q01DX001 (ip), vehicle: saline): 98 % of control
T/C (dose: 30.0 mg/kg/injection, schedule: Q01DX001 (ip), vehicle: saline): 101 % of control

O=C1c2c(ccc3ccccc23)CCC1Br (centres undefined)
T/C [14]: 97 % of control
T/C [15]: 101 % of control
T/C [16]: 103 % of control

CC1N=C1c1ccccc1 (centres undefined)
T/C (dose: 100.0 mg/kg/injection, schedule: Q04DX002 (ip), vehicle: saline): 102 % of control
T/C (dose: 200.0 mg/kg/injection, schedule: Q04DX002 (ip), vehicle: saline): 115 % of control
T/C (dose: 400.0 mg/kg/injection, schedule: Q04DX002 (ip), vehicle: saline): 105 % of control

CCCCCCCCCCCCCCCCCCOC(=O)c1ccco1
T/C (dose: 100.0 mg/kg/injection, schedule: Q01DX001 (ip), vehicle: other): 96 % of control
T/C (dose: 200.0 mg/kg/injection, schedule: Q01DX001 (ip), vehicle: other): 105 % of control
T/C (dose: 400.0 mg/kg/injection, schedule: Q01DX001 (ip), vehicle: other): 92 % of control

Cc1ccc([N+](=O)[O-])c(OC(=O)Nc2ccc(Cl)c(Cl)c2)c1
T/C [17]: 101 % of control
T/C [14]: 96 % of control and 106 % of control
T/C [18]: 101 % of control
T/C [15]: 88 % of control
T/C [19]: 114 % of control
T/C [16]: 87 % of control and 91 % of control

COc1cc(/C=C/C(=O)c2ccc3c(c2)OCO3)ccc1OCc1ccccc1
T/C (dose: 100.0 mg/kg/injection, schedule: Q04DX003 (ip), vehicle: water): 93 % of control
T/C (dose: 200.0 mg/kg/injection, schedule: Q04DX003 (ip), vehicle: water): 91 % of control
T/C (dose: 400.0 mg/kg/injection, schedule: Q04DX003 (ip), vehicle: water): 93 % of control

CCCCCCCCCCCCCCSSCCCCCCCCCCCCCC
T/C [5]: 98 % of control
T/C [12]: 92 % of control
T/C [13]: 96 % of control

OCC(O)C(O)C(O)/C=N\O (centres undefined)
T/C [6]: 107 % of control
T/C (dose: 200.0 mg/kg/injection, schedule: Q04DX003 (ip), vehicle: saline): 107 % of control
T/C (dose: 400.0 mg/kg/injection, schedule: Q04DX003 (ip), vehicle: saline): 100 % of control

O=S(=O)(Cc1ccccc1)C(Cl)(Cl)c1ccccc1
T/C [5]: 91 % of control
T/C [17]: 96 % of control
T/C [14]: 110 % of control
T/C [12]: 107 % of control
T/C [18]: 102 % of control
T/C [15]: 104 % of control
T/C [13]: 105 % of control
T/C [19]: 95 % of control
T/C [16]: 103 % of control

O=NN(CCCl)C(=O)NC1C=CCCC1 (centres undefined)
T/C (dose: 9.0 mg/kg/injection, schedule: Q01DX001 (ip), vehicle: other): 117 % of control
T/C (dose: 20.0 mg/kg/injection, schedule: Q01DX001 (ip), vehicle: other): 158 % of control
T/C (dose: 37.0 mg/kg/injection, schedule: Q01DX001 (ip), vehicle: other): 224 % of control
T/C (dose: 50.0 mg/kg/injection, schedule: Q01DX001 (ip), vehicle: other): 175 % of control
T/C (dose: 75.0 mg/kg/injection, schedule: Q01DX001 (ip), vehicle: other): 173 % of control
T/C (dose: 112.0 mg/kg/injection, schedule: Q01DX001 (ip), vehicle: other): 166 % of control

CSC(NC(=O)c1ccccc1)C(N)=O (centres undefined)
T/C (dose: 100.0 mg/kg/injection, schedule: Q04DX002 (ip), vehicle: Klucel (hydroxypropylcellulose) (HPC)): 101 % of control
T/C (dose: 200.0 mg/kg/injection, schedule: Q04DX002 (ip), vehicle: Klucel (hydroxypropylcellulose) (HPC)): 109 % of control
T/C (dose: 400.0 mg/kg/injection, schedule: Q04DX002 (ip), vehicle: Klucel (hydroxypropylcellulose) (HPC)): 97 % of control

FC1C(F)(F)C(F)(F)C(F)(F)C(F)(F)C1(F)F
T/C (dose: 50.0 mg/kg/injection, schedule: Q01DX001 (ip), vehicle: carboxymethylcellulose (CMC)): 97 % of control
T/C [20]: 97 % of control
T/C [21]: 107 % of control
T/C [9]: 96 % of control

CC(CC(CCC(=O)O)(c1ccccc1)c1ccccc1)N(C)C (centres undefined)
T/C [20]: 105 % of control
T/C [21]: 97 % of control

Fc1cccc(/C=C2/c3cc(Cl)ccc3-c3c(Cl)cc(Cl)cc32)c1
T/C [10]: 93 % of control
T/C [17]: 88 % of control
T/C [14]: 91 % of control
T/C [11]: 91 % of control
T/C [18]: 89 % of control
T/C [15]: 93 % of control
T/C (dose: 400.0 mg/kg/injection, schedule: Q01DX001 (ip), vehicle: Klucel (hydroxypropylcellulose) (HPC)): 88 % of control
T/C [19]: 96 % of control
T/C [16]: 88 % of control
